# Results: publication PMC9402538, “Rational design of a sensitivity-enhanced tracer for discovering efficient APC–Asef inhibitors” (Nature Communications, 2022)
# Like-named read-outs stand apart in the source and are kept apart here. Where a SMILES comes first, the peptide text is derived from it. [ ]: non-standard residue; d: D form. The star is where a group is joined. Cyclohexanecarbonyl = O=C(C1CCCCC1)*; Cyclopentanecarbonyl = O=C(C1CCCC1)*; Benzoyl(4-OMe) = COc1ccc(C(=O)*)cc1; Benzoyl(4-Me) = Cc1ccc(C(=O)*)cc1; Ala(cPr) = N[C@@H](CC1CC1)C(=O)O; Oxazole2carbonyl = O=C(c1ncco1)*; Cha = N[C@@H](CC1CCCCC1)C(=O)O; Isonicotinoyl = O=C(c1ccncc1)*; hLeu = CC(C)CC[C@H](N)C(=O)O; Nicotinoyl = O=C(c1cccnc1)*; 2Furoyl = O=C(c1ccco1)*; Acryloyl = C=CC(=O)*; X3 = O=C(c1ccncn1)*; Mpa = O=C(O)CCS
# Molecular target: T1, APC (303–739) (Homo sapiens, UniProt P25054)
# T1 sequence (P25054 303-739): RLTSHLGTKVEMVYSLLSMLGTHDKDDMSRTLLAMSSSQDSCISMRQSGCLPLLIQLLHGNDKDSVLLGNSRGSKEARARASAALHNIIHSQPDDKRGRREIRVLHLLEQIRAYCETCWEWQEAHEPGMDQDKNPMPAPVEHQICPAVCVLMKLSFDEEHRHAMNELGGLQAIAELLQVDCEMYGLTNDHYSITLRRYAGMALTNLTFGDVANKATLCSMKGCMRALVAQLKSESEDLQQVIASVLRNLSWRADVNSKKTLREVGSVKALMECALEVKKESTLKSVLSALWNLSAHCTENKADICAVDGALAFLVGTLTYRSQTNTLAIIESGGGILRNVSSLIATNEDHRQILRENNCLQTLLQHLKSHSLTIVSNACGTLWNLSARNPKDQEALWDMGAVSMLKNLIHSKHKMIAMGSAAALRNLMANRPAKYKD
# Experiment: FP competitive assay using tracer 7
# Format: binding
# Protocol: FITC-labeled tracer peptides were obtained from Changzhou Kanglong Biotech Ltd. (Changzhou, Jiangsu, China). […]. The FP signal changes upon tracer binding were measured after 1.5 h of incubation using a Synergy neo microplate reader (BioTek Instruments, Inc.) and plotted against the protein concentration. The corresponding EC50 values were generated by fitting the curves with a nonlinear regression model. […]. To make a working solution, APC (303–739) was diluted in FP buffer (50 mM HEPES, pH 7.5, 300 mM NaCl, 1 mM EDTA, 1 mM DTT). The diluted APC protein (91 μL) was combined with a serial dilution of peptides (4 μL) and incubated at room temperature for 1 h, followed by the addition of 5 μL of 400 nM tracer 7. The FP signals were measured after 1.5 h of incubation at room temperature using a Synergy neo microplate reader. Three controls were included on each plate, i.e., blank (without protein and tracer), 100% inhibition (free tracer only), and 0% inhibition (protein/tracer complex only) controls. All experiments were performed in triplicate. The IC50 values of peptides were calculated by nonlinear regression analysis using GraphPad Prism 7.0 software.
# [1] = Supplementary Table 4, read-out: IC50, Tracer 7
# [2] = Repeat 1, Table 3 source data, read-out: IC50(μM) Repeat 1
# [3] = Repeat 2, Table 3 source data, read-out: IC50(μM) Repeat 2
# [4] = Repeat 3, Table 3 source data, read-out: IC50(μM) Repeat 3
# [5] = mean of 3 repeats, Table 3 source data, read-out: IC50(μM) mean
# [6] = tracer 7, mean of three repeats, read-out: IC50 mean
# [7] = tracer 7, read-out: IC50 Repeat 1
# [8] = tracer 7, read-out: IC50 Repeat 2
# [9] = tracer 7, read-out: IC50 Repeat 3
IC50 [1] [µM],IC50 [2] [µM],IC50 [3] [µM],IC50 [4] [µM],IC50 [5] [µM],IC50 [6] [µM],IC50 [7] [µM],IC50 [8] [µM],IC50 [9] [µM],SMILES
0.86 ± 0.03,,,,,,,,,CC(C)C[C@H](NC(=O)[C@H](CO)NC(=O)[C@H](CCC(=O)O)NC(=O)CNC(=O)[C@H](C)NC(=O)c1ncco1)C(=O)N[C@@H](Cc1ccc(O)cc1)C(=O)N[C@@H](CCC(=O)O)C(N)=O [MAI-455] (Oxazole2carbonyl-AGESLYE-NH2)
0.22 ± 0.01,,,,,,,,,CC(C)C[C@H](NC(=O)[C@H](CO)NC(=O)[C@H](CCC(=O)O)NC(=O)CNC(=O)[C@H](C)NC(=O)c1ccncn1)C(=O)N[C@@H](Cc1ccc(O)cc1)C(=O)N[C@@H](CCC(=O)O)C(N)=O [MAI-464] (X3-AGESLYE-NH2)
,29.9,19.1,22,23.7,,,,,C=CC(=O)N[C@@H](C)C(=O)NCC(=O)N[C@@H](CCC(=O)O)C(=O)N[C@@H](CO)C(=O)N[C@@H](CC(C)C)C(=O)N[C@@H](Cc1ccc(O)cc1)C(=O)N[C@@H](CCC(=O)O)C(N)=O [MAI-501] (Acryloyl-AGESLYE-NH2)
,2.46,1.52,2.21,2.06,,,,,CC(C)C[C@H](NC(=O)[C@H](CO)NC(=O)[C@H](CCC(=O)O)NC(=O)CNC(=O)[C@H](C)NC(=O)CCS)C(=O)N[C@@H](Cc1ccc(O)cc1)C(=O)N[C@@H](CCC(=O)O)C(N)=O [MAI-502] ([Mpa]AGESLYE-NH2)
,7.09,5.22,5.07,5.79,,,,,CC(C)C[C@H](NC(=O)[C@H](CO)NC(=O)[C@H](CCC(=O)O)NC(=O)CNC(=O)[C@H](C)NC(=O)C1CCCC1)C(=O)N[C@@H](Cc1ccc(O)cc1)C(=O)N[C@@H](CCC(=O)O)C(N)=O [MAI-503] (Cyclopentanecarbonyl-AGESLYE-NH2)
,2.24,1.66,1.59,1.83,,,,,CC(C)C[C@H](NC(=O)[C@H](CO)NC(=O)[C@H](CCC(=O)O)NC(=O)CNC(=O)[C@H](C)NC(=O)C1CCCCC1)C(=O)N[C@@H](Cc1ccc(O)cc1)C(=O)N[C@@H](CCC(=O)O)C(N)=O [MAI-504] (Cyclohexanecarbonyl-AGESLYE-NH2)
,0.323,0.419,0.457,0.4,,,,,CC(C)C[C@H](NC(=O)[C@H](CO)NC(=O)[C@H](CCC(=O)O)NC(=O)CNC(=O)[C@H](C)NC(=O)c1ccco1)C(=O)N[C@@H](Cc1ccc(O)cc1)C(=O)N[C@@H](CCC(=O)O)C(N)=O [MAI-506] (2Furoyl-AGESLYE-NH2)
,0.234,0.331,0.318,0.294,,,,,CC(C)C[C@H](NC(=O)[C@H](CO)NC(=O)[C@H](CCC(=O)O)NC(=O)CNC(=O)[C@H](C)NC(=O)c1cccnc1)C(=O)N[C@@H](Cc1ccc(O)cc1)C(=O)N[C@@H](CCC(=O)O)C(N)=O [MAI-513] (Nicotinoyl-AGESLYE-NH2)
,0.116,0.128,0.0999,0.114,,,,,CC(C)C[C@H](NC(=O)[C@H](CO)NC(=O)[C@H](CCC(=O)O)NC(=O)CNC(=O)[C@H](C)NC(=O)c1ccncc1)C(=O)N[C@@H](Cc1ccc(O)cc1)C(=O)N[C@@H](CCC(=O)O)C(N)=O [MAI-514] (Isonicotinoyl-AGESLYE-NH2)
,0.261,0.204,0.254,0.239,,,,,Cc1ccc(C(=O)N[C@@H](C)C(=O)NCC(=O)N[C@@H](CCC(=O)O)C(=O)N[C@@H](CO)C(=O)N[C@@H](CC(C)C)C(=O)N[C@@H](Cc2ccc(O)cc2)C(=O)N[C@@H](CCC(=O)O)C(N)=O)cc1 [MAI-515] ({Benzoyl(4-Me)}-AGESLYE-NH2)
,,,,,0.0247,0.0255,0.0285,0.0202,COc1ccc(C(=O)N[C@@H](C)C(=O)NCC(=O)N[C@@H](CCC(=O)O)C(=O)N[C@@H](CO)C(=O)N[C@@H](CCC(C)C)C(=O)N[C@@H](Cc2ccc(O)cc2)C(=O)N[C@@H](CCC(=O)O)C(N)=O)cc1 [MAI-517] ({Benzoyl(4-OMe)}-AGES[hLeu]YE-NH2)
,,,,,0.0449,0.0454,0.047,0.0424,COc1ccc(C(=O)N[C@@H](C)C(=O)NCC(=O)N[C@@H](CCC(=O)O)C(=O)N[C@@H](CO)C(=O)N[C@@H](CC2CC2)C(=O)N[C@@H](Cc2ccc(O)cc2)C(=O)N[C@@H](CCC(=O)O)C(N)=O)cc1 [MAI-518] ({Benzoyl(4-OMe)}-AGES[Ala(cPr)]YE-NH2)
,,,,,0.0509,0.0544,0.0551,0.0432,COc1ccc(C(=O)N[C@@H](C)C(=O)NCC(=O)N[C@@H](CCC(=O)O)C(=O)N[C@@H](CO)C(=O)N[C@@H](CC2CCCCC2)C(=O)N[C@@H](Cc2ccc(O)cc2)C(=O)N[C@@H](CCC(=O)O)C(N)=O)cc1 [MAI-520] ({Benzoyl(4-OMe)}-AGES[Cha]YE-NH2)
